Assay results: ChEMBL document CHEMBL3875186, “Design, synthesis, and characterization of rhein analogs as novel inhibitors of scavenger receptor A” (Bioorg Med Chem Lett, 2017)
Calls of active or inactive are those of the source. The calls are words filed in the database; no cut-off is given here.

How the values were obtained:
[1] = molecular target: T1, Macrophage scavenger receptor types I and II (Mus musculus) (UniProt P30204); experiment: Antagonist activity at mouse recombinant SRA extracellular domain expressed in baculovirus infected Sf21 insect cells assessed as inhibition of protein-induced reduction of IL2 gene promoter activation in anti CD3/CD28 antibody activated wild type C57BL/6 mouse B3Z T-cells at 50 uM after 5 hrs by beta-galactosidase reporter gene assay
T1 sequence (whole entry): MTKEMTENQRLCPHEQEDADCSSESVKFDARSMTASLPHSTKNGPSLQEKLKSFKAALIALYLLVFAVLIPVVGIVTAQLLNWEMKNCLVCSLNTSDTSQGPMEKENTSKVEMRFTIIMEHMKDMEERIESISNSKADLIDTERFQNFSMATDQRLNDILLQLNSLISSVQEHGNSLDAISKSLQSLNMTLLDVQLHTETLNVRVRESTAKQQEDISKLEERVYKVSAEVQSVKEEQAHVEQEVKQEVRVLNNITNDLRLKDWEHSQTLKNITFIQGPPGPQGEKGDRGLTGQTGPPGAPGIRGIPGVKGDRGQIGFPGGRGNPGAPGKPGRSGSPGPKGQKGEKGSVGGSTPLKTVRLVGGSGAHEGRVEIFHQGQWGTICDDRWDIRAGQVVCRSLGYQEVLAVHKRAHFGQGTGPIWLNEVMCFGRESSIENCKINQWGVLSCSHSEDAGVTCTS

[2] = molecular target: T1, Macrophage scavenger receptor types I and II (Mus musculus); experiment: (§1) Antagonist activity at SRA in RM1-OVA tumor bearing wild type C57BL/6 mouse derived CD11bpositiveLy6ChighLy6Gnegative myeloid-derived suppressive cells co-cultured with splenocytes assessed as reduction in protein-mediated inhibition of anti CD3/CD28 antibody-induced T-cell proliferation at 10 to 20 uM preincubated for 2 hrs followed by splenocytes addition measured after 72 hrs by [3H]-thymidine incorporation assay
[3] = molecular target: T1, Macrophage scavenger receptor types I and II (Mus musculus); experiment: as §1, with “activation by measuring IL-2 secretion pretreated” for “proliferation at 10 to 20 uM preincubated”, “56” for “72”, “ELISA” for “[3H]-thymidine incorporation assay”
[4] = molecular target: T1, Macrophage scavenger receptor types I and II (Mus musculus); experiment: as §1, with “activation by measuring IL-2 secretion” for “proliferation”, “pretreated” for “preincubated”, “56” for “72”, “ELISA” for “[3H]-thymidine incorporation assay”

| inhibition [1] | inhibition [2] | inhibition [3] | inhibition [4] | Structure (SMILES) |
| --- | --- | --- | --- | --- |
| Active | Active | Dose-dependent effect |  | O=C1c2cccc(O)c2C(=O)c2c(O)cccc21 |
| Active | Active |  | Active | O=C(O)c1ccc2c(c1)C(=O)c1cccc(O)c1C2=O |
|  | Active |  |  | O=C(O)c1cc(O)c2c(c1)C(=O)c1cccc(O)c1C2=O |
